For data set [1], the system named is Acinetobacter baumannii KCTC 1017. Format: cell-based. The following applies: KCTC 1017. The text has this: (§1) To compare the antimicrobial activity of the peptides prepared in <Example 1>, the minimum inhibitory concentration (MIC), […] measured. Here, the minimal inhibitory concentration (MIC) refers to the lowest concentration of a substance that prevents visible bacterial growth.
(§2) Specifically, the bacterial strains listed in Table 2 below were obtained and cultured in media suitable for each strain until the mid-log phase. The cultures were then diluted to a concentration of 2×10^4 cells/100 μL and prepared in microtiter plates (Nunc, USA). Subsequently, serial 2-fold dilutions of the peptides prepared in Example 1 were prepared, and 10 μL of each dilution was added to the wells, and the plates were incubated at 37° C. for 18 hours. Absorbance at 600 nm was measured using a microtiter plate reader (Merck ELISA reader, Germany) to determine the MIC values for each bacterial strain. The parent peptide dCATH was used as a control.

Data set [2] has as its system Bacillus cereus KCTC 2508. Format: cell-based.
From the text: as §1, §2

Data set [3] relates to Escherichia coli ATCC 25922. Format: cell-based.
From the text: as §1, §2

Data set [4] concerns Listeria monocytogenes KCTC 3710. Format: cell-based.
From the text: as §1, §2

Data set [5] concerns Pseudomonas aeruginosa ATCC 27853. Format: cell-based.
From the text: as §1, §2

In data set [6] the test system is Staphylococcus aureus ATCC 25923. Format: cell-based. The following applies: ATCC 25923.
From the text: as §1, §2

The subject of data set [7] is Acinetobacter baumannii_isolate 10. Format: cell-based, Acinetobacter baumannii. The following applies: isolate 10, 24 h. How it is done:
(§3) Specifically, among the bacterial strains listed in Table 2, those known to form biofilms well (Acinetobacter baumannii KCTC 2508, Acinetobacter baumannii isolate 10, and isolate 14) were cultured in the appropriate media to the mid-log phase and diluted to a cell concentration of 5×10^4 cells/100 µL, followed by inoculation into microplates (SPL). Subsequently, the peptides prepared in <Example 1> were serially 10-fold diluted with 10 mM sodium phosphate buffer (pH 7.2), and 10 μL of each dilution was added to each well. The plates were then incubated at 37° C. for 24 hours. After completely removing the supernatant, the plates were fixed with 100% methanol for 15 minutes, stained with crystal violet staining solution for 1 hour, washed three times, and then the stain was solubilized with 95% ethanol. Absorbance was measured at 595 nm using a microplate reader to determine the MBIC values for each bacterial strain.

Data set [8] deals with Acinetobacter baumannii_isolate 14. Format: cell-based, Acinetobacter baumannii. The following applies: isolate 14, 24 h. How it is done:
as §3

The nature of the next data set: in vitro. Format: cell-based. The note with it: human, HaCaT keratinocyte cells, Cell Viability. On the procedure:
To evaluate the cytotoxicity of the peptides prepared in <Example 1>, toxicity was measured using a human keratinocyte cell line (HaCaT cell line, Dr. N. E. Fusenig, Heidelberg, Germany).
Specifically, HaCaT cells cultured in DMEM medium containing 10% fetal bovine serum (FBS) were seeded at a density of 2×10^5 cells/well into a microtiter plate and incubated for 24 hours. Then, peptides dCATH, dCATH-A1, dCATH-A2, dCATH-A3, dCATH-A4, dCATH-A5, dCATH-A6, and dCATH-A7 were added to each well at concentrations of 3.13, 6.25, 12.5, 25.0, 50.0, and 100.0 μM/well, followed by incubation for 24 hours in a 5% CO2 incubator. After 24 hours, 100 μL of a reaction solution containing 0.5 mg/mL MTT (Thiazolyl Blue Tetrazolium Bromide) dissolved in phosphate-buffered saline (PBS) was added to each well and reacted for 4 hours. After removing the supernatant, 200 μL of DMSO (dimethyl sulfoxide) was added to dissolve the formed MTT crystals, and absorbance at 570 nm was measured to determine cell viability.

Each structure is given as a SMILES string. In brackets after ≈: the same amount, converted by molar mass. Peptide text beside a SMILES is read from it.

Turning to `CC[C@H](C)[C@H](NC(=O)[C@H](C)NC(=O)[C@H](CC(C)C)NC(=O)[C@@H]1CCCN1C(=O)[C@@H](NC(=O)[C@H](CC(C)C)NC(=O)[C@H](CCC(N)=O)NC(=O)[C@H](C)NC(=O)[C@H](Cc1ccccc1)NC(=O)[C@H](CCCNC(=N)N)NC(=O)[C@@H](N)CCCCN)C(C)C)C(=O)N[C@@H](CCCCN)C(=O)N[C@H](C(=O)N[C@@H](Cc1ccc(O)cc1)C(=O)N[C@@H](CCCNC(=N)N)C(=O)N[C@@H](C)C(=O)N[C@@H](Cc1c[nH]c2ccccc12)C(=O)N[C@@H](CCCCN)C(=O)N[C@@H](CCCNC(=N)N)C(=O)N[C@@H](CCCNC(=N)N)C(N)=O)[C@@H](C)CC` [dCATH-A2] (H-KRFAQLVPLAIKIYRAWKRR-NH2; N-terminus assumed), the minimum inhibitory concentration (MIC) in [1] was 1 µM (≈ 2.51 µg/mL); in data set [2], 1 µM (≈ 2.51 µg/mL); in data set [3], 2 µM (≈ 5.03 µg/mL); in data set [4] it was 2 µM (≈ 5.03 µg/mL); in [5], 2 µM (≈ 5.03 µg/mL); in data set [6], 1 µM (≈ 2.51 µg/mL). Also, the MBIC in data set [7] and in data set [8] was 2 µM each time. This compound returned a viability at 24 h, 3.13 µM in the data set “in vitro” of 100%. Moreover, the viability at 24 h, 6.25 µM in the data set “in vitro” is 100%. Moreover, in “in vitro”, the viability at 24 h, 12.5 µM is 89%. For the same compound, the viability at 24 h, 25 µM in “in vitro” stood at 30.7%. For the same compound, the viability at 24 h, 50 µM in the data set “in vitro” came to 2.99%. The compound also gave a viability at 24 h, 100 µM in “in vitro” of 2.16%.
Regarding `CC[C@H](C)[C@H](NC(=O)[C@H](C)NC(=O)[C@H](CC(C)C)NC(=O)[C@@H]1CCCN1C(=O)[C@@H](NC(=O)[C@H](CC(C)C)NC(=O)[C@H](CCC(N)=O)NC(=O)[C@H](Cc1c[nH]c2ccccc12)NC(=O)[C@H](C)NC(=O)[C@H](CCCNC(=N)N)NC(=O)[C@@H](N)CCCCN)C(C)C)C(=O)N[C@@H](CCCCN)C(=O)N[C@H](C(=O)N[C@@H](Cc1ccc(O)cc1)C(=O)N[C@@H](CCCNC(=N)N)C(=O)N[C@@H](C)C(=O)N[C@@H](Cc1c[nH]c2ccccc12)C(=O)N[C@@H](CCCCN)C(=O)N[C@@H](CCCNC(=N)N)C(=O)N[C@@H](CCCNC(=N)N)C(N)=O)[C@@H](C)CC` [dCATH-A1] (H-KRAWQLVPLAIKIYRAWKRR-NH2; N-terminus assumed), the MIC was 2 µM (≈ 5.1 µg/mL) in data set [1]; 2 µM (≈ 5.1 µg/mL) in data set [2]; 2 µM (≈ 5.1 µg/mL) in [3]; 2 µM (≈ 5.1 µg/mL) in data set [4]; 4 µM (≈ 10.2 µg/mL) in data set [5]; 2 µM (≈ 5.1 µg/mL) in [6]. Besides, the MBIC in data set [7] turned out to be 4 µM; in data set [8] it was 2 µM. The compound also came in with a viability at 24 h, 3.13 µM in the data set “in vitro” of 100%. Also, in the data set “in vitro”, the viability at 24 h, 6.25 µM came to 100%. This compound registered a viability at 24 h, 12.5 µM in the data set “in vitro” of 97.9%. The compound further came in with a viability at 24 h, 25 µM in the data set “in vitro” of 30%. The viability at 24 h, 50 µM in “in vitro” worked out at 0.81%. The viability at 24 h, 100 µM in the data set “in vitro” came out at 1.79%.
Consider `CC[C@H](C)[C@H](NC(=O)[C@H](C)NC(=O)[C@H](CC(C)C)NC(=O)[C@H](CCCCN)NC(=O)[C@@H](NC(=O)[C@H](CC(C)C)NC(=O)[C@H](CCC(N)=O)NC(=O)[C@H](C)NC(=O)[C@H](C)NC(=O)[C@H](CCCNC(=N)N)NC(=O)[C@@H](N)CCCCN)C(C)C)C(=O)N[C@@H](CCCCN)C(=O)N[C@H](C(=O)N[C@@H](Cc1ccc(O)cc1)C(=O)N[C@@H](CCCNC(=N)N)C(=O)N[C@@H](C)C(=O)N[C@@H](Cc1c[nH]c2ccccc12)C(=O)N[C@@H](CCCCN)C(=O)N[C@@H](CCCNC(=N)N)C(=O)N[C@@H](CCCNC(=N)N)C(N)=O)[C@@H](C)CC` [dCATH-A4] (H-KRAAQLVKLAIKIYRAWKRR-NH2; N-terminus assumed), for which the MIC in [1], in [2], in data set [3], in [4], in data set [5] and in data set [6] was 2 µM (≈ 4.94 µg/mL) each time. The MBIC in data set [7] and in data set [8] was 4 µM each time. The same compound registered a viability at 24 h, 3.13 µM in the data set “in vitro” of 90.9%. The viability at 24 h, 6.25 µM in the data set “in vitro” stood at 90.2%. Further, the viability at 24 h, 12.5 µM in “in vitro” amounted to 58%. This compound returned a viability at 24 h, 25 µM in “in vitro” of 5.59%. The compound also yielded a viability at 24 h, 50 µM in the data set “in vitro” of 2.49%. The compound further returned a viability at 24 h, 100 µM in the data set “in vitro” of 1.36%.
On to `CC[C@H](C)[C@H](NC(=O)[C@H](C)NC(=O)[C@H](CC(C)C)NC(=O)[C@@H]1CCCN1C(=O)[C@@H](NC(=O)[C@H](CC(C)C)NC(=O)[C@H](CCC(N)=O)NC(=O)[C@H](C)NC(=O)[C@H](C)NC(=O)[C@H](CCCNC(=N)N)NC(=O)[C@@H](N)CCCCN)C(C)C)C(=O)N[C@@H](CCCCN)C(=O)N[C@H](C(=O)N[C@@H](Cc1ccc(O)cc1)C(=O)N[C@@H](CCCNC(=N)N)C(=O)N[C@@H](C)C(=O)N[C@@H](Cc1c[nH]c2ccccc12)C(=O)N[C@@H](CCCCN)C(=O)N[C@@H](CCCNC(=N)N)C(=O)N[C@@H](CCCNC(=N)N)C(N)=O)[C@@H](C)CC` [dCATH-A3] (H-KRAAQLVPLAIKIYRAWKRR-NH2; N-terminus assumed), for which the MIC in data set [1] is 1 µM (≈ 2.44 µg/mL); in data set [2] it was 2 µM (≈ 4.87 µg/mL); in data set [3] it was 2 µM (≈ 4.87 µg/mL); in data set [4], 2 µM (≈ 4.87 µg/mL); in [5], 2 µM (≈ 4.87 µg/mL); in [6], 2 µM (≈ 4.87 µg/mL). Further, the values for the MBIC in [7] and in data set [8] were 2 µM and 1 µM, respectively. The compound further came in with a viability at 24 h, 3.13 µM in the data set “in vitro” of 92%. Also, in the data set “in vitro”, the viability at 24 h, 6.25 µM was 91.9%. For the same compound, in the data set “in vitro”, the viability at 24 h, 12.5 µM was 97.9%. For the same compound, the viability at 24 h, 25 µM in “in vitro” worked out at 56.6%. This compound registered a viability at 24 h, 50 µM in “in vitro” of 5.47%. This compound registered a viability at 24 h, 100 µM in “in vitro” of 1.59%.
Consider `CC[C@H](C)[C@H](NC(=O)[C@H](C)NC(=O)[C@H](CCCCN)NC(=O)[C@H](CCCCN)NC(=O)[C@@H](NC(=O)[C@H](CC(C)C)NC(=O)[C@H](CCC(N)=O)NC(=O)[C@H](C)NC(=O)[C@H](C)NC(=O)[C@H](CCCNC(=N)N)NC(=O)[C@@H](N)CCCCN)C(C)C)C(=O)N[C@@H](CCCCN)C(=O)N[C@H](C(=O)N[C@@H](Cc1ccc(O)cc1)C(=O)N[C@@H](CCCNC(=N)N)C(=O)N[C@@H](C)C(=O)N[C@@H](Cc1c[nH]c2ccccc12)C(=O)N[C@@H](CCCCN)C(=O)N[C@@H](CCCNC(=N)N)C(=O)N[C@@H](CCCNC(=N)N)C(N)=O)[C@@H](C)CC` [dCATH-A5] (H-KRAAQLVKKAIKIYRAWKRR-NH2; N-terminus assumed), for which the MIC in data set [1], in data set [2], in [3], in [4], in data set [5] and in data set [6] was 1 µM (≈ 2.48 µg/mL) throughout. For the same compound, the MBIC in data set [7] was found to be 2 µM; in data set [8], 1 µM. Also, the viability at 24 h, 3.13 µM in “in vitro” was 100%. The viability at 24 h, 6.25 µM in the data set “in vitro” is 92.3%. Besides, in “in vitro”, the viability at 24 h, 12.5 µM came to 95.1%. Further, the viability at 24 h, 25 µM in the data set “in vitro” stood at 58%. In “in vitro”, this compound registered a viability at 24 h, 50 µM of 8.27%. This compound also displayed a viability at 24 h, 100 µM in the data set “in vitro” of 3.71%.

(Values after US20260217765A1, “NOVEL ANTIMICROBIAL PEPTIDE DESIGNED FROM DUCK-DERIVED ANTIMICROBIAL PEPTIDE ANDUSE THEREOF” (INDUSTRY-ACADEMIC COOPERATION FOUNDATION, CHOSUN UNIVERSITY, priority 2023, published 2026).)
